Measured values reported in patent US20080227644A1, “Use of abscisic acid to control fruiting” (priority 2007, published 2008).

Columns and labels:
Assay type in all cases: in vivo
PF-27 peach trees = assay: Foliar spray of peach tree limbs at shuck split stage, fruit retention; settings: 1000 ppm, sprayed to runoff
Excerpt: Limbs of PF-27 peach trees with fruit at the shuck split stage were flagged; the number of fruit distal to the flagging was counted. The limbs were sprayed to runoff with either water or 1000 ppm abscisic acid (S-ABA; ABA; S-(+)-abscisic acid; +-ABA, (+)-(S)-cis,trans-abscisic acid,(+)-(S)-cis,trans-ABA; S-ABA; (S)-5-(1-hydroxy-2,6,6,-trimethyl-4-oxo-2-cyclohexen-1-yl)-3-methyl-(2Z,4E)-pentadienoic acid; CAS no. 21293-29-8). After 8 and 19 days the fruit were re-counted and the percent fruit retention was determined. Limbs treated with 1000 ppm ABA retained less fruit than limbs treated with water 19 days following treatment (Table 1).

Cacaks Schone plum = assay: Spray of plum trees at fruitlet set stage, fruit set and fruit size; settings: 600 ppm at fruitlet set stage
Method: (§1) Trees of Cacaks Schone plum and Katinka plum were sprayed with 600 ppm ABA at the fruitlet set stage or left untreated. The number of fruit per flower was determined after the normal fruit drop period had ended. At harvest the weight per 100 fruits was measured for both the ABA treated and the untreated trees. Spraying Cacaks Schone or Katinka plum trees with ABA at the fruitlet set stage reduced the number of fruits per flower and increased the average fruit weight compared to untreated trees (Table 2).

Katinka plum [1] = assay: as above; settings: 600 ppm at fruitlet set stage
Method: as §1

Cacaks plum = assay: Spray of plum trees at petal fall (BBCH stage 69), fruit set, yield, fruit weight; settings: at harvest
Method: (§2) Trees of Cacaks plum were sprayed at petal fall (BBCH stage 69) with 500 ppm or 1000 ppm ABA or left untreated (Table 3). Percent fruit set, average yield and average fruit weight were determined at harvest. Spraying Cacaks plum trees with ABA reduced fruit set percentage and yield per tree and increased average fruit weight (Table 3).

Katinka plum [2] = assay: as above; settings: at harvest
Method: as §2, with “Katinka” for “Cacaks”, “4).” for “3).”

Elegant Lady Peach = assay: Spray of trees at petal fall (BBCH stage 69), fruit set; settings: 1000 ppm at petal fall; at harvest
Method: (§3) Trees of Lady Elana Apricot and Elegant Lady Peach were sprayed at petal fall (BBCH stage 69) with 1000 ppm ABA or left untreated (Table 5). Percent fruit set was determined at harvest. Spraying Lady Elana Apricot and Elegant Lady Peach trees with ABA reduced percent fruit set (Table 5).

Lady Elana Apricot = assay: as above; settings: 1000 ppm at petal fall; at harvest
Method: as §3

[3] = test system: European seedless cucumber (var. Flamingo) plants; assay: Foliar spray of greenhouse cucumber plants, fruit abortion; settings: 100 ppm, sprayed to drip at 20 node growth stage
Method: European seedless cucumber (var. Flamingo) plants were grown in a greenhouse. At the 20 node growth stage the plants were sprayed to drip with ABA (100 ppm) solution or left unsprayed (control). ABA treated plants had twice the rate of fruit abortion compared to the control plants (Table 6).

In the case of “(S)-5-(1-hydroxy-2,6,6,-trimethyl-4-oxo-2-cyclohexen-1-yl)-3-methyl-(2Z,4E)-pentadienoic acid [ABA]”, the percent fruit retention (PF-27 peach trees; 8 days after treatment) is reported as 97%, the percent fruit retention (PF-27 peach trees; 19 days after treatment) is reported as 69% and the Fruit/flower (Cacaks Schone plum; after normal fruit drop period) is reported as 0.09. It also gave a 100 fruit weight (Cacaks Schone plum; at harvest) of 2.23 kg, a Fruit/flower (Katinka plum [1]; after normal fruit drop period) of 0.45 and a 100 fruit weight (Katinka plum [1]; at harvest) of 2.35 kg. The “% Fruit set” value (Cacaks plum; 500 ppm at petal fall) was 20%, the Fruit weight (Cacaks plum; 500 ppm at petal fall) was 14.5 g and the Yield (Cacaks plum; 500 ppm at petal fall) was 8.0 kg/tree. For the same substance, the “% Fruit set” value (Cacaks plum; 1000 ppm at petal fall) was 11%, the Fruit weight (Cacaks plum; 1000 ppm at petal fall) was 14.6 g and the Yield (Cacaks plum; 1000 ppm at petal fall) was 7.0 kg/tree. The “% Fruit set” value (Katinka plum [2]; 500 ppm at petal fall) was 28%, the Fruit weight (Katinka plum [2]; 500 ppm at petal fall) was 26.2 g and the Yield (Katinka plum [2]; 500 ppm at petal fall) was 4.2 kg/tree. The “% Fruit set” value (Katinka plum [2]; 1000 ppm at petal fall) was 21%, the Fruit weight (Katinka plum [2]; 1000 ppm at petal fall) was 28.0 g and the Yield (Katinka plum [2]; 1000 ppm at petal fall) was 4.4 kg/tree. For the same substance, the “% Fruit set” value (Elegant Lady Peach) was 36%, the “% Fruit set” value (Lady Elana Apricot) was 33% and the “Percentage of basal 18 cucumber fruits per plant that aborted” value [3] was 68%. For the same substance, the “rate of fruit abortion compared to the control plants” value [3] was “twice”.
